The COVID Moonshot data (paper PMC11187573), “Identification of SARS-CoV-2 Mpro inhibitors through deep reinforcement learning for de novo drug design and computational chemistry approaches” (RSC Medicinal Chemistry, 2024)

Columns and labels:
[1] = biological target: SARS-CoV-2 Main Protease (SARS-CoV-2) (UniProt P0DTD1)
Protocol: Compounds were seeded into assay-ready plates (Greiner 384 low volume, cat 784900) using an Echo 555 acoustic dispenser, and DMSO was back-filled for a uniform concentration in assay plates (DMSO concentration maximum 1%) Screening assays were performed in duplicate at 20µM and 50µM. […] Dose response assays were performed in 12 point dilutions of 2-fold, typically beginning at 100µM. […] Reagents for Mpro assay were dispensed into the assay plate in 10µl volumes for a final volume of 20µL.
Mpro was pre-incubated for 15 minutes at room temperature with compound before addition of substrate and a further 30 minute incubation. Protease reaction was measured in a BMG Pherastar FS with a 480/520 ex/em filter set. Raw data was mapped and normalized to high (Protease with DMSO) and low (No Protease) controls using Genedata Screener software.

[2] = biological target: SARS-CoV-2 Main Protease (SARS-CoV-2) (UniProt P0DTD1); remark: listed apart in the source
Protocol: Briefly, compounds were seeded into assay-ready plates (Greiner 384PP, cat# 781280) using an ECHO 650T dispenser and DMSO was back-filled for a uniform concentration in assay plates (DMSO concentration < 1%, final volume = 500 nL.). […] After a quick centrifugation step (1000 rpm, 15 s) the plate is incubated for 15 min at room temperature. […] After centrifugation (1000 rpm, 14 s) the reaction is incubated for 10 min (11-mer) or 5 min (37-mer) at room temperature before quenching with 10 % formic acid. The reactions are analysed with MS using RapidFire (RF) 365 high-throughput sampling robot (Agilent) connected to an iFunnel Agilent 6550 accurate mass quadrupole time-of-flight (Q-TOF) mass spectrometer using electrospray. […] Dose response curves uses an 11-point range of 100--0.0017 µM inhibitor concentrations. RapidFire integrator software (Agilent) was used to extract the charged states from the total ion chromatogram data followed by peak integration. For the 11-mer peptide the m/z (+1) charge states of both the substrate (1191.67 Da) and cleaved N-terminal product TSAVLQ (617.34 Da) were used and the 37-mer peptide the m/z (+2) charge states of the substrate (3960.94 Da) and m/z (+1) of the cleaved C-terminal product [sequence] (1125.57 Da). Percentage conversion (product peak integral / (product peak integral + substrate peak integral))*100) and percentage inhibitions were calculated and normalised against DMSO control with deduction of any background signal in Microsoft Excel. IC50s were calculated using Levenberg–Marquardt algorithm used to fit a restrained Hill equation to the dose-response data with both GraphPad PRISM and CDD.

Structure (SMILES) | inhibition ([1]; 50.0 µM) [%] | inhibition ([2]; 20.0 µM) [%] | inhibition ([2]; 50.0 µM) [%] | relative solubility at 20 uM | relative solubility at 100 uM | IC50 [2] [µM] | inhibition ([1]; 20.0 µM) [%]
Cc1ccncc1NC(=O)CCNc1ccc(S(N)(=O)=O)cc1 | -27.1 | 0 | 0 | 1 | 1 | – | –
NS(=O)(=O)c1ccc(N2CCC(Nc3ccc(F)cc3)CC2)cc1 | 8.08 | 3.79 | 50.2 | 1 | 0.89 | 39.2 | –
C=CC(=O)N(c1ccc(C(C)(C)C)cc1)C(C(=O)NC(C)(C)C)c1cncc(Br)c1C (configuration not stated) | 7.84 | 12.9 | 35.3 | 0.98 | 0.92 | – | -4.32
COc1c(NC(=O)Cc2cccc(Cl)c2Cl)c(C)nn1C | 2.19 | – | 0 | 1 | 1.01 | – | 2.78
C=CC(=O)N(c1ccc(C(C)(C)C)cc1)C(C(=O)NC(C)C)c1cccnc1 (configuration not stated) | 0.416 | 0 | 0 | 1 | 1 | – | -1.73
NS(=O)(=O)c1ccc(N2CCC(N3CCCCCC3)CC2)cc1 | 0.117 | – | 100 | 1 | 1 | 15.8 | -1.25
NC(=O)[C@@H]1CN(C2CCOCC2)C[C@H]1c1ccccc1 (stereo in doubt) | -23 | 0 | 0 | 1 | 1 | – | -22.2
N#Cc1ccc(Nc2ccc(NC(=O)Nc3cccnc3)cc2)nc1 | -3.7 | 0 | 0 | 1 | 0.91 | – | -1.31
CCN1CCN(Cc2ccccc2CNC(=O)[C@@]2(C)CCN2C(=O)OC(C)(C)C)CC1 (stereo in doubt) | -0.697 | – | 13.2 | 1 | 1 | – | -6.3
O=C(CCl)N1CCN(Cc2cc(O)ccc2O)CC1 | 74.5 | 63.9 | 89.9 | 0.99 | 0.99 | 9.28 | 57.4
CCn1c(=O)n(CC(=O)Nc2c(C)ccnc2C)c2ccccc21 | -2.86 | – | 0 | 1 | 1 | – | -1.64
Cc1ccncc1NC(=O)Cc1ccc(S(N)(=O)=O)cc1 | 10.9 | 6.42 | -0.94 | 1 | 1 | – | 4.76
COc1cccc(N2CCN(C(=O)c3cc(=O)[nH]c4ccccc34)CC2)c1 | 90.8 | – | 83.3 | 0.99 | 0.95 | 19.7 | 78.5
N#Cc1cccc(NC(=O)Nc2cncc(N)c2)c1 | 57.2 | 9.09 | 48.4 | 1 | 1 | – | –
O=C(Cc1cncnc1)Nc1cc(F)cc(OC2CC(=O)N2)c1 (configuration not stated) | 87.8 | – | 45.7 | 0.99 | 0.99 | – | 52.8
C=CC(=O)N(c1ccc(C2(C)CC2)cc1)C(C(=O)Nc1ccc(Cl)cc1)c1cccnc1 (configuration not stated) | -9.81 | 0 | -0.67 | 0.95 | 0.56 | – | –
COc1ccc2nc(C)cc(C(=O)NN)c2c1 | 22.2 | 0 | 0 | 1 | 1 | – | –
COc1ccc2c(c1)C(C(=O)Nc1cnccc1-n1cccn1)CCC2 (configuration not stated) | 7.3 | – | 0 | 0.99 | 0.95 | – | -15.2
Cc1ccnn1CC(=O)NCC(NC(=O)C(C)C#N)c1ccccc1 (configuration not stated) | -6.86 | – | -26.1 | 0.99 | 1 | – | -13.2

Structure (SMILES) | inhibition ([1]; 50.0 µM) [%] | inhibition ([2]; 20.0 µM) [%] | inhibition ([2]; 50.0 µM) [%] | relative solubility at 20 uM | relative solubility at 100 uM | IC50 [2] [µM] | inhibition ([1]; 20.0 µM) [%]
C=CC(=O)N1CCN(C(=O)c2cccc(Cl)c2)CC1 | 5.55 | 0 | 0 | 0.99 | 0.99 | – | –
O=S1(=O)CCC(N2CCN(c3nc(-c4cccnc4)nc4ccccc34)CC2)C1 (configuration not stated) | 14.1 | 0 | 0 | 1 | 0.94 | – | 13
O=C1Nc2c(Br)cccc2C1=O | -4.45 | – | 67.4 | 0.99 | 0.81 | 43.1 | -4.89
O=C(Nc1cccc(-c2cc[nH]n2)c1)C(O)c1cccnc1 (configuration not stated) | 10.4 | 0 | 0 | 1 | 1 | – | –
CCOC(=O)c1nc(S(C)(=O)=O)ncc1Cl | 98.5 | – | 100 | 0.99 | 0.99 | 1.04 | 96.9
O=C(Nc1nc2ccc(F)cn2n1)C1CCOc2ccc(Cl)cc21 (configuration not stated) | 7.58 | – | 0 | 1 | 0.99 | – | -28.5
O=C1Nc2ccc(Br)cc2C1=O | -1.05 | – | 66.1 | 1 | 0.99 | 30.3 | -2.12
O=C(NCc1ccno1)c1ccccc1OC1CCCCC1 | 5.82 | 0 | – | 1 | 1 | – | 4.09
Cc1ccncc1NC(=O)Cc1cccc(C(N)=O)c1 | -5.83 | – | 0.535 | 1.01 | 1.01 | – | 2.66
C=CC(=O)N(c1ccc(C(F)(F)F)cc1)C(C(=O)NCCc1cccc(F)c1)c1cncc(Cl)c1 (configuration not stated) | 68.2 | – | 82.1 | 0.94 | 0.28 | 4.84 | 50.2
CCC(C)CC(=O)N1CCCC(NC(=O)Cn2c(C)cc(C)nc2=O)CC1 (configuration not stated) | -19.4 | – | -29.6 | 0.98 | 1 | – | -4.95
Cc1noc(C)c1COc1ccccc1C(=O)NC(C)c1nnc2ncccn12 (configuration not stated) | 8.28 | 0 | 18.5 | 0.99 | 0.94 | – | 2.22
C=CC(=O)N(c1cc(C)cc(N)c1)C(C(=O)NC(C)(C)C)c1cccnc1 (configuration not stated) | -19.4 | 0 | 0 | 0.99 | 0.98 | – | -15.1
N#CCN1CCN(Cc2cc(Cl)cc3ccccc23)CC1 | 5.55 | 10.4 | 10.2 | 0.91 | 0.92 | – | –
CC(=O)N[C@@H](C)C(=O)Nc1cnccc1C (stereo in doubt) | -7.91 | – | -0.127 | 1 | 1 | – | -12.3
CC(C(=O)O)c1ccc2c(c1)[nH]c1ccc(Cl)cc12 (configuration not stated) | 3.97 | 0 | – | 1 | 0.98 | – | -0.548
C=CC(=O)N(c1ccc(C2(C)CC2)cc1)C(C(=O)Nc1ccc(OC)cc1)c1cccnc1 (configuration not stated) | 12.6 | 0 | 0 | 0.96 | 0.62 | – | –
Cc1cc2c(cc1C)[C@H](C(=O)Nc1cncnc1-n1cccn1)CO2 (stereo in doubt) | -9.4 | – | 0 | 0.82 | 0.76 | – | -1.2
